Reference: US9416162B2, “Peptides having reduced toxicity that stimulate cholesterol efflux” (The Regents of the University of California, priority 2013, dated 2016)
Non-standard residues stand in square brackets, D forms with d. No end group written: not given here. Cit = NC(=O)NCCC[C@H](N)C(=O)O

System: apoE−/− mice
Test: Atherosclerosis in apoE−/− mice on high-fat western diet, whole aorta Oil-Red O staining
Assay type: in vivo, mouse
Settings: IP 30 mg/kg at 48 hour intervals for 6 weeks
Protocol: Male apoE^−/− mice at 8 weeks of age were fed a high-fat western diet for 14 weeks. Mice were subsequently randomized to either a control group to receive IP injection of vehicle alone or lipid-free peptide (30 mg/kg) at 48 hour intervals for 6 weeks. […] The extent of whole aorta covered with fatty lesions is shown, determined by Oil-Red O staining. Values are means±SD, n=10 mice per group.
CS6253, another synthesis batch of T5237-4, was administered IP at 10 mg/kg for 10 weeks showing again reduction of substantial atherosclerosis in apoE^−/− mice (FIG. 36). Male apoE^−/− mice at 8 weeks of age were fed a high-fat western diet for 14 weeks. Mice were subsequently randomized to either a control group to receive IP injection of vehicle alone or lipid-free CS6253 (10 mg/kg) at 48 hour intervals for 10 weeks while the mice remained on high-fat western diet. The extent of whole aorta covered with fatty lesions is shown, determined by Oil-Red O staining. Values are means±SD, n=10 mice per group.
CS6253 administered SC also reduce substantial atherosclerosis in apoE KO mice. Male apoE−/− mice at 8 weeks of age were fed a high-fat western diet for 14 weeks (FIG. 37). One group was terminated before treatment start as baseline control. Mice were subsequently randomized to one of 3 arms to receive subcutaneous (SC) injection alternate days for 6 weeks; vehicle alone, CS6253 30 mg/kg or CS6253 60 mg/kg. During the first 4 treatment weeks the mice remained on high-fat western diet while during the last two weeks of treatment they were switched to chow diet. The extent of whole aorta covered with fatty lesions is shown, determined by Oil-Red O staining. Values are means±SD, n=10 mice per group.

## T5460-1: citrulline form of LeuATI-5261 possessing a single R3→Citrulline substitution (EV[Cit]SKLEEWLAALRELAEELLARLKS)
  extent of whole aorta covered with fatty lesions: reduced atherosclerosis
